Laboratory results taken from BindingDB's records for doi:10.1124/mol.62.4.947 (National Cancer Institute-Bethesda, 2002).

Biological target: Transient receptor potential cation channel subfamily V member 1 (Rattus norvegicus, UniProt O35433)
Sequence (O35433 whole entry): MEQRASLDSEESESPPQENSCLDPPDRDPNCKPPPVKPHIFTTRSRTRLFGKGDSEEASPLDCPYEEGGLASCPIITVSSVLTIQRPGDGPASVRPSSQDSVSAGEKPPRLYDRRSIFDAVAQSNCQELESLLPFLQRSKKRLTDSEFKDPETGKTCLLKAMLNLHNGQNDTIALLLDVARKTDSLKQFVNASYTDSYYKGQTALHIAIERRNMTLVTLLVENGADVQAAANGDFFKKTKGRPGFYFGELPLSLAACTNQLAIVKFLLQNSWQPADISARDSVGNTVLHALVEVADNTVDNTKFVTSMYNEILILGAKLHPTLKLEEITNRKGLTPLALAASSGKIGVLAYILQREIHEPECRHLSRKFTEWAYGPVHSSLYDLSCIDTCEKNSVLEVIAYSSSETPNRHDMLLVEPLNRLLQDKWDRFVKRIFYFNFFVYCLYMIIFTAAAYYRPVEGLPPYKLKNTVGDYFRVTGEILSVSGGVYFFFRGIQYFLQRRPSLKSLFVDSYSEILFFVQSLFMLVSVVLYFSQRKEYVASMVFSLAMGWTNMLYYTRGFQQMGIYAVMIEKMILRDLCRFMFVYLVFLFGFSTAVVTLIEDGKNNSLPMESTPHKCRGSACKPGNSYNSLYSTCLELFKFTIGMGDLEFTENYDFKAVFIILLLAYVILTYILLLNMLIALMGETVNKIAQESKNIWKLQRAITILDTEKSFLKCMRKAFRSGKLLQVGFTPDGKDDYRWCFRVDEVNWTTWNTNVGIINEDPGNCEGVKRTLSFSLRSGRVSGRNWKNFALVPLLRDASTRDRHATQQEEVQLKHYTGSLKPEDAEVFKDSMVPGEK

Ki: 9.2 nM
Compound: CC(C)(C)c1ccc(CNC(=S)NCc2ccc(NS(C)(=O)=O)c(F)c2)cc1 [JYL1421]
